Reference: ChEMBL document CHEMBL1201862, “PubChem BioAssay data set” (2004)
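Cells were grown in 96-well plates and exposed to each compound for 48 hours at five concentrations; endpoints were interpolated linearly between bracketing concentrations, or set to the highest concentration if not reached. GI50 is the concentration that inhibits growth by half.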 Active and inactive are the calls of the source. Cut-off read from the data, not from the text of the source: active = GI50 up to about 1.1 µM and inactive = higher.

How the values were obtained:
Experiment in all cases: NCI-60 cell line screen, 48 h
[1] = system: KM12
[2] = system: HCT-15
[3] = system: SK-OV-3
[4] = system: SW-620
[5] = system: DU-145
[6] = system: SK-MEL-28
[7] = system: SK-MEL-2
[8] = system: COLO 205
[9] = system: MCF7
[10] = system: RPMI-8226
[11] = system: OVCAR-8
[12] = system: A498
[13] = system: SNB-75
[14] = system: UO-31
[15] = system: OVCAR-3
[16] = system: PC-3
[17] = system: UACC-257
[18] = system: A549
[19] = system: OVCAR-4
[20] = system: HOP-92

Question: `CN(C)S(=O)(=O)Nc1ccccn1` was tested. Which GI50 [1] did it give?
Answer: > 100 µM (inactive)

Question: What about the GI50 [2] of the same compound?
Answer: > 100 µM

Question: And the GI50 [3]?
Answer: > 100 µM (inactive)

Question: And the GI50 [4]?
Answer: > 100 µM (inactive)

Question: And the GI50 [5]?
Answer: > 100 µM (inactive)

Question: And the GI50 [6]?
Answer: > 100 µM (inactive)

Question: What about the GI50 [7] of the same compound?
Answer: > 100 µM (inactive)

Question: What about the GI50 [8] of the same compound?
Answer: > 100 µM (inactive)

Question: And the GI50 [9]?
Answer: > 100 µM (inactive)

Question: What about the GI50 [10] of the same compound?
Answer: > 100 µM (inactive)

Question: What about the GI50 [11] of the same compound?
Answer: > 100 µM (inactive)

Question: What about the GI50 [12] of the same compound?
Answer: > 100 µM (inactive)

Question: And the GI50 [13]?
Answer: > 100 µM (inactive)

Question: What about the GI50 [14] of the same compound?
Answer: > 100 µM (inactive)

Question: And the GI50 [15]?
Answer: > 100 µM (inactive)

Question: And the GI50 [16]?
Answer: > 100 µM (inactive)

Question: And the GI50 [17]?
Answer: > 100 µM (inactive)

Question: What about the GI50 [18] of the same compound?
Answer: > 100 µM (inactive)

Question: And the GI50 [19]?
Answer: > 100 µM (inactive)

Question: And the GI50 [20]?
Answer: > 100 µM (inactive)

Question: With `O=C(O)CN1C(=O)CN=C(c2ccccn2)c2cc(Cl)ccc21` as the compound, how does the GI50 [1] read?
Answer: > 100 µM (inactive)

Question: What about the GI50 [2] of the same compound?
Answer: > 100 µM

Question: And the GI50 [3]?
Answer: > 100 µM (inactive)

Question: What about the GI50 [4] of the same compound?
Answer: > 100 µM (inactive)

Question: What about the GI50 [5] of the same compound?
Answer: > 100 µM (inactive)

Question: What about the GI50 [6] of the same compound?
Answer: > 100 µM (inactive)

Question: What about the GI50 [7] of the same compound?
Answer: > 100 µM (inactive)

Question: What about the GI50 [8] of the same compound?
Answer: > 100 µM (inactive)

Question: What about the GI50 [9] of the same compound?
Answer: > 100 µM (inactive)

Question: What about the GI50 [10] of the same compound?
Answer: > 100 µM (inactive)

Question: What about the GI50 [11] of the same compound?
Answer: > 100 µM (inactive)

Question: What about the GI50 [12] of the same compound?
Answer: > 100 µM (inactive)

Question: What about the GI50 [13] of the same compound?
Answer: > 100 µM (inactive)

Question: What about the GI50 [14] of the same compound?
Answer: > 100 µM (inactive)

Question: And the GI50 [15]?
Answer: > 100 µM (inactive)

Question: What about the GI50 [16] of the same compound?
Answer: > 100 µM (inactive)

Question: What about the GI50 [17] of the same compound?
Answer: > 100 µM (inactive)

Question: What about the GI50 [18] of the same compound?
Answer: > 100 µM (inactive)

Question: What about the GI50 [19] of the same compound?
Answer: > 100 µM (inactive)

Question: What about the GI50 [20] of the same compound?
Answer: > 100 µM (inactive)

Question: How did the GI50 [1] turn out when `Cc1ncc([N+](=O)[O-])n1CCN=[N+]=[N-]` was run?
Answer: > 100 µM (inactive)

Question: What about the GI50 [2] of the same compound?
Answer: > 100 µM

Question: What about the GI50 [3] of the same compound?
Answer: > 100 µM (inactive)

Question: What about the GI50 [4] of the same compound?
Answer: > 100 µM (inactive)

Question: And the GI50 [5]?
Answer: > 100 µM (inactive)

Question: And the GI50 [6]?
Answer: > 100 µM (inactive)

Question: What about the GI50 [7] of the same compound?
Answer: > 100 µM (inactive)

Question: And the GI50 [8]?
Answer: > 100 µM (inactive)

Question: And the GI50 [9]?
Answer: > 100 µM (inactive)

Question: What about the GI50 [10] of the same compound?
Answer: > 100 µM (inactive)

Question: And the GI50 [11]?
Answer: > 100 µM (inactive)

Question: What about the GI50 [12] of the same compound?
Answer: > 100 µM (inactive)

Question: What about the GI50 [13] of the same compound?
Answer: > 100 µM (inactive)

Question: And the GI50 [14]?
Answer: > 100 µM (inactive)

Question: What about the GI50 [15] of the same compound?
Answer: > 100 µM (inactive)

Question: And the GI50 [16]?
Answer: > 100 µM (inactive)

Question: And the GI50 [17]?
Answer: > 100 µM (inactive)

Question: And the GI50 [18]?
Answer: > 100 µM (inactive)

Question: And the GI50 [19]?
Answer: > 100 µM (inactive)

Question: And the GI50 [20]?
Answer: > 100 µM (inactive)

Question: Which results are given for `O=C(O)/C=C(/C(=O)O)C12CCN3CC4=CCOC5CC(=O)NC1C5C4CC32` (centres undefined)?
Answer: GI50 [1]: > 100 µM (inactive); GI50 [2]: > 100 µM; GI50 [3]: > 100 µM (inactive); GI50 [4]: > 100 µM (inactive); GI50 [5]: > 100 µM (inactive); GI50 [6]: > 100 µM (inactive); GI50 [7]: > 100 µM (inactive); GI50 [8]: > 100 µM (inactive); GI50 [9]: > 100 µM (inactive); GI50 [10]: > 100 µM (inactive); GI50 [11]: > 100 µM (inactive); GI50 [12]: > 100 µM (inactive); GI50 [13]: > 100 µM (inactive); GI50 [14]: > 100 µM (inactive); GI50 [15]: > 100 µM (inactive); GI50 [16]: > 100 µM (inactive); GI50 [17]: > 100 µM (inactive); GI50 [18]: > 100 µM (inactive); GI50 [19]: > 100 µM (inactive); GI50 [20]: > 100 µM (inactive)

Question: For `CCOC(=O)c1cccc(/N=N/Nc2cccc(C(=O)OCC)c2)c1`, which GI50 [1] is on record?
Answer: > 100 µM (inactive)

Question: And the GI50 [2]?
Answer: > 100 µM

Question: And the GI50 [3]?
Answer: 28.7 µM (inactive)

Question: And the GI50 [4]?
Answer: 68.7 µM (inactive)

Question: What about the GI50 [5] of the same compound?
Answer: > 100 µM (inactive)

Question: And the GI50 [6]?
Answer: > 100 µM (inactive)

Question: And the GI50 [7]?
Answer: 34.2 µM (inactive)

Question: And the GI50 [8]?
Answer: > 100 µM (inactive)

Question: What about the GI50 [9] of the same compound?
Answer: 61.7 µM (inactive)

Question: What about the GI50 [10] of the same compound?
Answer: > 100 µM (inactive)

Question: And the GI50 [11]?
Answer: 25.5 µM (inactive)

Question: And the GI50 [12]?
Answer: 30.8 µM (inactive)

Question: And the GI50 [13]?
Answer: 14.6 µM (inactive)

Question: What about the GI50 [14] of the same compound?
Answer: 17.7 µM (inactive)

Question: And the GI50 [15]?
Answer: 26.8 µM (inactive)

Question: What about the GI50 [16] of the same compound?
Answer: 34.4 µM (inactive)

Question: And the GI50 [17]?
Answer: 56.9 µM (inactive)

Question: And the GI50 [18]?
Answer: 74.5 µM (inactive)

Question: And the GI50 [19]?
Answer: 20.9 µM (inactive)

Question: What about the GI50 [20] of the same compound?
Answer: 22.3 µM (inactive)

Question: How did the GI50 [1] turn out when `CS(=O)(=O)c1cc(=O)c2ccccc2s1` was run?
Answer: 15.5 µM (inactive)

Question: And the GI50 [2]?
Answer: 2.25 µM

Question: And the GI50 [3]?
Answer: 17.6 µM (inactive)

Question: And the GI50 [4]?
Answer: 1.86 µM (inactive)

Question: What about the GI50 [5] of the same compound?
Answer: 16.1 µM (inactive)

Question: What about the GI50 [6] of the same compound?
Answer: 3.72 µM (inactive)

Question: And the GI50 [7]?
Answer: 15.3 µM (inactive)

Question: And the GI50 [8]?
Answer: 1.76 µM (inactive)

Question: What about the GI50 [9] of the same compound?
Answer: 2.72 µM (inactive)

Question: What about the GI50 [10] of the same compound?
Answer: 2.42 µM (inactive)

Question: What about the GI50 [11] of the same compound?
Answer: 2.93 µM (inactive)

Question: And the GI50 [12]?
Answer: 17.1 µM (inactive)

Question: What about the GI50 [13] of the same compound?
Answer: 16 µM (inactive)

Question: What about the GI50 [14] of the same compound?
Answer: 15.7 µM (inactive)

Question: What about the GI50 [15] of the same compound?
Answer: 2.61 µM (inactive)

Question: And the GI50 [16]?
Answer: 17.6 µM (inactive)

Question: And the GI50 [17]?
Answer: 3.54 µM (inactive)

Question: And the GI50 [18]?
Answer: 18.4 µM (inactive)

Question: And the GI50 [19]?
Answer: 2.9 µM (inactive)

Question: What about the GI50 [20] of the same compound?
Answer: 1.8 µM (inactive)

Question: `CCCCCC(=O)NC(=S)Nc1nnn[nH]1` was tested. Which GI50 [1] did it give?
Answer: > 100 µM (inactive)

Question: What about the GI50 [2] of the same compound?
Answer: > 100 µM

Question: What about the GI50 [3] of the same compound?
Answer: > 100 µM (inactive)

Question: And the GI50 [4]?
Answer: > 100 µM (inactive)

Question: What about the GI50 [5] of the same compound?
Answer: > 100 µM (inactive)

Question: And the GI50 [6]?
Answer: > 100 µM (inactive)

Question: What about the GI50 [7] of the same compound?
Answer: > 100 µM (inactive)

Question: And the GI50 [8]?
Answer: > 100 µM (inactive)

Question: And the GI50 [9]?
Answer: > 100 µM (inactive)

Question: What about the GI50 [10] of the same compound?
Answer: > 100 µM (inactive)

Question: What about the GI50 [12] of the same compound?
Answer: > 100 µM (inactive)

Question: And the GI50 [13]?
Answer: > 100 µM (inactive)

Question: And the GI50 [14]?
Answer: > 100 µM (inactive)

Question: What about the GI50 [15] of the same compound?
Answer: > 100 µM (inactive)

Question: And the GI50 [16]?
Answer: > 100 µM (inactive)

Question: What about the GI50 [17] of the same compound?
Answer: > 100 µM (inactive)

Question: And the GI50 [18]?
Answer: > 100 µM (inactive)

Question: What about the GI50 [19] of the same compound?
Answer: > 100 µM (inactive)

Question: And the GI50 [20]?
Answer: > 100 µM (inactive)
